Results reported in patent publication US6893829B2, “Human leukocyte 12-lipoxygenase and its role in the pathogenesis of disease states” (City of Hope, priority 1992, dated 2005).

How the values were obtained:
ERK = ERK activity in CHO-AT1a cells; type: cell-based, Chinese hamster; details: 12-HETE 10^−7M, peaks at 5 minutes and 3-4.5 hours
Procedure: ERK activity was evaluated by the substrate-SDS-polyacrylamide gel method described in Anal. Biochem., 183:139-143 (1989). Confluent cells in […] were made quiescent in serum-free medium and then treated with agonists for various time periods. The cells were then lysed in lysis buffer (1% NP40, 1% sodium deoxycholate, 0.1% SDS, 100 mM NaCl, 50 mM Tris, 10 mM EDTA, 1 mM EGTA, aprotinin, […], 0.1 mM PMSF and 1 mM sodium orthovanadate, pH 7.4). Lysates were centrifuged to pellet nuclei and the cell extracts ([…]) were subjected to electrophoresis on SDS-polyacrylamide gels (10%) containing myelin basic protein (0.5 mg/ml) as an ERK substrate. The SDS was then washed, followed by denaturation, renaturation and protein phosphorylation on the gel with [^32P] ATP.
(§1) It has been discovered that the administration of AII results in biphasic activation of MAP kinase (all of the MAP kinase experiments were conducted in CHO-AT1a cells—AII receptor AT1a cDNA transfected Chinese hamster ovary cells).

JNK = JNK activity in CHO-AT1a cells; type: cell-based, Chinese hamster
Procedure: The plasmid pGEX-cJun 1/79 (Dept. Pharmacol. UCSD, La Jolla) is a GST-cJun (1-79) expression vector encoding amino acids (1-79) of cJun. The GST fusion protein expression vector was transformed into E. Coli. Protein was induced with 0.1 mM IPTG and purified by affinity binding to glutathione-agarose beads. Unstimulated or stimulated cells were lysed into WCEB (25 mM HEPES, pH 7.7, 03.M Nacl, 15 mM MgCl2, 02.mM EDTA and 0.1% triton X-100). About 50 μg protein extract was incubated with GST-cJun+GSH agarose overnight at 4° C. Phosphorylation was carried out at 30° C. for 20 minutes in the presence of 20 mM HEPES, pH 7.5, 20 mM b-glycerophosphate, 10 mM p-nitrophenolphosphate, 10 mM MgCl2, 10 mM DDT, 50 μg Na3VO4, 20 μM ATP (cold) and about 0.5 μl of new gamma ^32P-ATP. After boiling with electrophoresis sample buffer, the supernatants were analyzed on 12% SDS-PAGE. JNK activity was also measured by immunoprecipitation method using an anti-JNK antibody (Parmingen Co., San Diego) and then activities were measured using 2 μg of GST-cJun (1-79) as substrate as described in Cell, 81:1147-1157 (1995).
as §1

JAK1 and JAK2 = assay: JAK activity in CHO-AT1a cells (phosphotyrosine immunoprecipitation, JAK1/JAK2 immunoblot); type: cell-based, Chinese hamster; details: 12-HETE 10^−7M, 10 hours
Procedure: It has further been discovered that 12-HETE induces stimulation of JAK activity. CHO-AT1a cells were treated with 12-HETE (10^−7M) for 10 hours, immunoprecipitated with a phosphotyrosine antibody and immunoblotted using specific JAK1 and JAK2 antibodies.

[1] = system: VEGF protein in MCF-7 cells; assay: VEGF protein expression in breast cancer cells (immunoblot); type: cell-based, human
Procedure: FIG. 8 illustrates the dose-dependent effect of platelet-derived growth factor (PDGF) on vascular endothelial growth factor (VEGF) protein (42 kD) expression in MCF-7 breast cancer cells. Nearly confluent MCF-7 cells were serum starved for 24 hours by placing in DME medium+0.4% FCS and 0.2% BSA. This medium was then freshly replaced and the cells incubated for another 24 hours with PDGF. At the end of the incubation, the cell monolayers were washed with ice-cold PBS, scraped into PBS and pelleted by centrifugation. The cell pellets were then lysed and equal amounts of protein (50 μg) subjected to electrophoresis and immunoblotting to detect VEGF using a specific antibody from Santa Cruz Biotechnology. Detection was by a chemiluminiscent technique.
FIG. 9 illustrates the effect of epidermal growth factor (EGF) and the 12-lipoxygenase product 12-HETE on VEGF protein expression in the MCF-7 breast cancer cell line MCF-7. MCF-7 cells were treated with EGF and 12-HETE for 24 hours and VEGF protein identified as described in the legend to FIG. 8.

[2] = system: VEGF in vascular smooth muscle cells (VSMC); assay: VEGF protein, mRNA and secretion in VSMC (Western, Northern, EIA); type: cell-based, Porcine and human
Procedure: In addition to the work reflected in FIGS. 8-10, it has now been discovered that AII, 12-HETE and hyperglycemia (HG) increase VEGF production in vascular smooth muscle cells (VSMC). Porcine and human VSMC were cultured for at least two passages under normal glucose (NG, 5.5 mM) or under HG conditions. VEGF protein expression was determined by Western blotting and VEGF mRNA by Northern blots. HG alone increased the level of VEGF mRNA (2.8-fold) and protein (3.2-fold). […] In addition, HG increased the secretion of VEGF into the medium as measured by a specific EIA (56.2±4 ng/ml NG vs 73±5 HG, p<0.02).

RINm5F cells = assay: DNA synthesis (3H-thymidine incorporation) in RINm5F cells; type: cell-based, rat; details: 24 hours, 12-HETE 10^−9M
Procedure: FIG. 11 illustrates the effects of 12-LO products on DNA synthesis in the insulin-producing rat beta cell line, RINm5F. DNA synthesis was studied using ^3H-thymidine incorporation (luCi/ml) added for the last six hours (18-24 hours of experiment). The LO products were added to the cells in complete growth media for 24 hours.
Applicants have discovered that direct addition of the 12-LO products 12-S-HETE or 12-HPETE directly decreases cellular growth as reflected by decreased ^3H thymidine incorporation or DNA synthesis in the rat pure beta cell line RIN-M5F.

[3] = system: beta sub-unit of the human insulin receptor; assay: Insulin receptor phosphorylation in rat-1-fibroblasts containing the human insulin receptor; type: cell-based; details: 12-HETE 10^−7M
Procedure: 7. Baicalein, a selective 12-LO inhibitor, can prevent glucose-induced insulin resistance. To perform these studies, applicants cultured rat-1-fibroblasts that have been engineered to contain the human insulin receptor for ten days in high glucose (25 mM). For the last 24 hours, the cells were cultured with 10^−6M baicalein. The marked bands represent the phosphorylated beta sub-unit of the human insulin receptor (FIG. 23). As the band becomes lighter, it represents reduced insulin action. Lane 1 represents the insulin receptor phosphorylation in normal glucose (5.5 mM) vs the reduced insulin action in lane 5 (25 mM glucose).

MO binding to HAEC = assay: Monocyte binding to human aortic endothelial cells; type: cell-based; details: HAEC in 5.5 mM glucose, 10^−10M; control 66±6
Procedure: The rate of atherosclerosis is accelerated in humans with diabetes mellitus (DM). Applicants recently published evidence that high glucose (HG) exposure of human aortic endothelial cells (HAEC) selectively increases monocyte (MO) but not neutrophil binding (56). HG exposure to EC can increase arachidonic acid (AA) release and lipoxygenase (LO) production formation. In the current study, applicants evaluated the role of 12- and 15-LO products in MO binding to HAEC. Culture of HAEC in HG (25 mM) for two passages increased MO binding compared to cells maintained in 5.5 mM glucose (239±30 cells/field HG vs 111±7, p<0.01). Phenidone (10^−6M), an inhibitor of the 12-LO pathway (50 percent inhibition of HG-induced binding, p<0.05). […] 12(S)-HETE added to HAEC cultured in 5.5 mM glucose increased MO binding (66±6 cells/field control vs 114±4 12-HETE 10^−10M, p<0.01). […] In summary, (1) elevated glucose increases MO binding to HAEC and this effect can be reduced by blockade of the LO pathway; (2) 12 but not 15-LO products, can increase MO binding.

[4] = system: smooth muscle cell migration; details: cited from earlier work

## CCCCC/C=C\C[C@@H](O)/C=C/C=C\C/C=C\CCCC(=O)O [12-HETE, 12-Hydroxyeicosatetraenoic Acid]
ERK
  stimulation of ERK activity: biphasic stimulation
JNK; 12-HETE 10^−7M, 30 minutes
  stimulation of JNK activity, first peak: 2-3 fold
JNK; 12-HETE 10^−7M, 3 hours
  stimulation of JNK activity, second peak: 2.5-5 fold
JNK; FIG. 29
  lowest concentration stimulating JNK activity: 10^−9 M
JAK1 and JAK2
  JAK activity: increased JAK activity
[1]; MCF-7, 24 hours
  VEGF protein expression: more potent than EGF
[1]; MCF-7 and MDA MB, 12-HETE 10^−7M and 10^−6M
  VEGF protein expression: increases VEGF protein expression
[2]
  increase in VEGF secretion (EIA): 1.4 fold
[2]; 12-HETE 10^−8M and 10^−7M, 4 hours, NG and HG
  expression of VEGF protein and mRNA: increased the expression
RINm5F cells
  3H-thymidine incorporation (DNA synthesis): reduced
[3]
  basal insulin receptor phosphorylation: did not directly alter
  insulin-induced receptor phosphorylation of the beta subunit: markedly reduced
MO binding to HAEC
  MO binding: 114±4 cells/field
[4]
  lowest concentration leading to smooth muscle cell migration: 10^−12 M
